In patent US4075336A, “Thiazines and method” (Kanto Ishiseiyaku Co., Ltd., priority 1976, dated 1978):

Legend:
[1] = Acute toxicity, intraperitoneal (LD50, deaths); assay type: in vivo; settings: mouse, in vivo, ip; intraperitoneal, dd strain mice, males and females
Experimental: (§1) Animals [dd strain mice; 5 groups of males and 5 groups of females, each group consisting of 8 animals] were intraperitoneally given the compound of this invention in doses of 2000, 2400, 2880, 3456 and 5000 mg/kg. […] Based on this finding, it may be concluded that the value of LD50 is at least more than 5000 mg/kg.

dd strain mice [2] = assay: Acute toxicity, intraperitoneal (LD50, deaths); assay type: in vivo
Experimental: as §1

rats = assay: Analgesic effect, Randall-Selitto method (pain threshold, carrageenan-inflamed paw); assay type: in vivo
Experimental: Using an analgesic effect measuring apparatus (made by Ugo Basile Co., Ltd.), pain thresholds in rats were measured as a function of elapsed time and compared with normal pain threshold values which had previously been determined. Each group consisted of 5 animals, which were subcutaneously given 0.1 ml of a 1% carrageenan suspension on their right paws. The test compounds were given orally, 1 hour before the carrageenan medication. The experiments were repeated twice under the same conditions. The mean values of the results obtained for 10 animals were compared with those of methiazinic acid.
The results obtained are shown in Table 1, wherein "OS" refers to oral administration.

Wister-strain rats = assay: Anti-inflammatory effect, carrageenan-induced edema; assay type: in vivo; settings: for inhibitory percent: vs control
Experimental: (Carrageenen-induced edema)
Wister-strain rats (each group consisting of 5 animals) were subcutaneously given 0.1 ml of a 1% carrageenan suspension on their right paws. The volumes of the right paws were measured prior to the administration, and thereafter were measured with elapsed time. The inhibitory percent was calculated, in comparison with a control, on the basis of the volume of edema induced. The volume was estimated with reference to the volume before the carrageenan-injection. The test compounds were orally administered 1 hour before the carrageenan-injection. The same experiments were repeated twice. The mean values of the results in all 10 animals were compared with those of methiazinic acid.

dd strain mice [3] = settings: methiazinic acid; source of value not given; cited from earlier work
[4] = 50 mg/kg per os, inflammated paw
[5] = 100 mg/kg per os, inflammated paw

COc1ccc(C2NC(=O)c3ccccc3S2)cc1O (centres unmarked) [Compound of this invention, 4-oxo-2-(3-hydroxy-4-methoxyphenyl)-2,3-dihydro-5,6-benzo-1,3-thiazine]
LD50 [1]: > 5000 mg/kg | toxicity relative to that of methiazinic acid (dd strain mice [2]; from LD50 values): less than one/tenth | deaths (dd strain mice [2]; intraperitoneal, 2000, 2400, 2880, 3456 and 5000 mg/kg, male and female dd strain mice): no deaths were observed | Analgesic coefficient (rats; [4]): 0.73 | Pain threshold after 30 min. (rats; [4]): 62.5 mm Hg | Pain threshold after 60 min. (rats; [4]): 57.7 mm Hg | Pain threshold after 90 min. (rats; [4]): 48.0 mm Hg | Pain threshold after 120 min. (rats; [4]): 41.8 mm Hg | Pain threshold after 180 min. (rats; [4]): 36.8 mm Hg | Pain threshold after 240 min. (rats; [4]): 44.2 mm Hg | Pain threshold, before medication (rats; [4]): 66.8 mm Hg | Analgesic coefficient (rats; 50 mg/kg per os, normal paw): 0.93 | Pain threshold after 30 min. (rats; 50 mg/kg per os, normal paw): 66.7 mm Hg | Pain threshold after 60 min. (rats; 50 mg/kg per os, normal paw): 66.0 mm Hg | Pain threshold after 90 min. (rats; 50 mg/kg per os, normal paw): 64.0 mm Hg | Pain threshold after 120 min. (rats; 50 mg/kg per os, normal paw): 61.7 mm Hg | Pain threshold after 180 min. (rats; 50 mg/kg per os, normal paw): 57.3 mm Hg | Pain threshold after 240 min. (rats; 50 mg/kg per os, normal paw): 60.8 mm Hg | Pain threshold, before medication (rats; 50 mg/kg per os, normal paw): 67.3 mm Hg | Analgesic coefficient (rats; [5]): 0.82 | Pain threshold after 30 min. (rats; [5]): 66.7 mm Hg | Pain threshold after 60 min. (rats; [5]): 63.7 mm Hg | Pain threshold after 90 min. (rats; [5]): 57.2 mm Hg | Pain threshold after 120 min. (rats; [5]): 49.0 mm Hg | Pain threshold after 180 min. (rats; [5]): 43.3 mm Hg | Pain threshold after 240 min. (rats; [5]): 43.2 mm Hg | Pain threshold, before medication (rats; [5]): 65.6 mm Hg | Analgesic coefficient (rats; 100 mg/kg per os, normal paw): 0.96 | Pain threshold after 30 min. (rats; 100 mg/kg per os, normal paw): 65.0 mm Hg | Pain threshold after 60 min. (rats; 100 mg/kg per os, normal paw): 65.7 mm Hg | Pain threshold after 90 min. (rats; 100 mg/kg per os, normal paw): 65.2 mm Hg | Pain threshold after 120 min. (rats; 100 mg/kg per os, normal paw): 62.5 mm Hg | Pain threshold after 180 min. (rats; 100 mg/kg per os, normal paw): 61.0 mm Hg | Pain threshold after 240 min. (rats; 100 mg/kg per os, normal paw): 61.2 mm Hg | Pain threshold, before medication (rats; 100 mg/kg per os, normal paw): 66.0 mm Hg | analgesic effect (in words) (rats; 50 and 100 mg/kg, oral): clearly exerts analgesic effects | duration and strength of analgesic effect compared with methiazinic acid (in words) (rats; 50 and 100 mg/kg, oral): about the same duration and strength of effect as methiazinic acid | edema percent (Wister-strain rats; 50 mg/kg per os, 1 hr.): 29.3% | inhibitory percent (Wister-strain rats; 50 mg/kg per os, 1 hr.): 39.2% | edema percent (Wister-strain rats; 50 mg/kg per os, 2 hrs.): 43.1% | inhibitory percent (Wister-strain rats; 50 mg/kg per os, 2 hrs.): 32.6% | edema percent (Wister-strain rats; 50 mg/kg per os, 3 hrs.): 43.1% | inhibitory percent (Wister-strain rats; 50 mg/kg per os, 3 hrs.): 37.3% | edema percent (Wister-strain rats; 50 mg/kg per os, 4 hrs.): 42.4% | inhibitory percent (Wister-strain rats; 50 mg/kg per os, 4 hrs.): 32.1% | edema percent (Wister-strain rats; 50 mg/kg per os, 5 hrs.): 37.4% | inhibitory percent (Wister-strain rats; 50 mg/kg per os, 5 hrs.): 36.4% | edema percent (Wister-strain rats; 100 mg/kg per os, 1 hr.): 24.1% | inhibitory percent (Wister-strain rats; 100 mg/kg per os, 1 hr.): 42.1% | edema percent (Wister-strain rats; 100 mg/kg per os, 2 hrs.): 31.5% | inhibitory percent (Wister-strain rats; 100 mg/kg per os, 2 hrs.): 49.9% | edema percent (Wister-strain rats; 100 mg/kg per os, 3 hrs.): 34.6% | inhibitory percent (Wister-strain rats; 100 mg/kg per os, 3 hrs.): 50.4% | edema percent (Wister-strain rats; 100 mg/kg per os, 4 hrs.): 33.9% | inhibitory percent (Wister-strain rats; 100 mg/kg per os, 4 hrs.): 47.5% | edema percent (Wister-strain rats; 100 mg/kg per os, 5 hrs.): 35.5% | inhibitory percent (Wister-strain rats; 100 mg/kg per os, 5 hrs.): 39.1% | anti-inflammatory effect compared with methiazinic acid (in words) (Wister-strain rats; 50 and 100 mg/kg per os): very similar to that of methiazinic acid | duration of anti-inflammatory effect (in words) (Wister-strain rats; 50 and 100 mg/kg per os): long duration effect, which was observed even after 5 hours | anti-inflammatory effect 1 hour after administration (in words) (Wister-strain rats; 50 and 100 mg/kg per os, 1 hour): significant effect 1 hour after administration

CN1c2ccccc2Sc2ccc(CC(=O)O)cc21 [Methiazinic acid, α-(10-methyl-2-pheno-thiazinyl)-acetic acid, reference compound]
Analgesic coefficient (rats; [4]): 0.74 | Pain threshold after 30 min. (rats; [4]): 62.7 mm Hg | Pain threshold after 60 min. (rats; [4]): 57.7 mm Hg | Pain threshold after 90 min. (rats; [4]): 48.9 mm Hg | Pain threshold after 120 min. (rats; [4]): 43.5 mm Hg | Pain threshold after 180 min. (rats; [4]): 39.0 mm Hg | Pain threshold after 240 min. (rats; [4]): 44.5 mm Hg | Pain threshold, before medication (rats; [4]): 66.8 mm Hg | Analgesic coefficient (rats; 50 mg/kg per os, normal paw): 0.94 | Pain threshold after 30 min. (rats; 50 mg/kg per os, normal paw): 66.2 mm Hg | Pain threshold after 60 min. (rats; 50 mg/kg per os, normal paw): 65.3 mm Hg | Pain threshold after 90 min. (rats; 50 mg/kg per os, normal paw): 63.8 mm Hg | Pain threshold after 120 min. (rats; 50 mg/kg per os, normal paw): 62.0 mm Hg | Pain threshold after 180 min. (rats; 50 mg/kg per os, normal paw): 59.7 mm Hg | Pain threshold after 240 min. (rats; 50 mg/kg per os, normal paw): 61.3 mm Hg | Pain threshold, before medication (rats; 50 mg/kg per os, normal paw): 67.2 mm Hg | Analgesic coefficient (rats; [5]): 0.83 | Pain threshold after 30 min. (rats; [5]): 69.3 mm Hg | Pain threshold after 60 min. (rats; [5]): 66.7 mm Hg | Pain threshold after 90 min. (rats; [5]): 57.3 mm Hg | Pain threshold after 120 min. (rats; [5]): 49.5 mm Hg | Pain threshold after 180 min. (rats; [5]): 47.2 mm Hg | Pain threshold after 240 min. (rats; [5]): 47.2 mm Hg | Pain threshold, before medication (rats; [5]): 67.7 mm Hg | Analgesic coefficient (rats; 100 mg/kg per os, normal paw): 0.98 | Pain threshold after 30 min. (rats; 100 mg/kg per os, normal paw): 69.0 mm Hg | Pain threshold after 60 min. (rats; 100 mg/kg per os, normal paw): 66.7 mm Hg | Pain threshold after 90 min. (rats; 100 mg/kg per os, normal paw): 65.5 mm Hg | Pain threshold after 120 min. (rats; 100 mg/kg per os, normal paw): 64.8 mm Hg | Pain threshold after 180 min. (rats; 100 mg/kg per os, normal paw): 62.8 mm Hg | Pain threshold after 240 min. (rats; 100 mg/kg per os, normal paw): 64.0 mm Hg | Pain threshold, before medication (rats; 100 mg/kg per os, normal paw): 66.9 mm Hg | edema percent (Wister-strain rats; 50 mg/kg per os, 1 hr.): 38.8% | inhibitory percent (Wister-strain rats; 50 mg/kg per os, 1 hr.): 19.6% | edema percent (Wister-strain rats; 50 mg/kg per os, 2 hrs.): 47.7% | inhibitory percent (Wister-strain rats; 50 mg/kg per os, 2 hrs.): 25.5% | edema percent (Wister-strain rats; 50 mg/kg per os, 3 hrs.): 48.8% | inhibitory percent (Wister-strain rats; 50 mg/kg per os, 3 hrs.): 29.2% | edema percent (Wister-strain rats; 50 mg/kg per os, 4 hrs.): 46.7% | inhibitory percent (Wister-strain rats; 50 mg/kg per os, 4 hrs.): 25.2% | edema percent (Wister-strain rats; 50 mg/kg per os, 5 hrs.): 39.4% | inhibitory percent (Wister-strain rats; 50 mg/kg per os, 5 hrs.): 32.9% | edema percent (Wister-strain rats; 100 mg/kg per os, 1 hr.): 34.2% | inhibitory percent (Wister-strain rats; 100 mg/kg per os, 1 hr.): 17.7% | edema percent (Wister-strain rats; 100 mg/kg per os, 2 hrs.): 38.1% | inhibitory percent (Wister-strain rats; 100 mg/kg per os, 2 hrs.): 39.3% | edema percent (Wister-strain rats; 100 mg/kg per os, 3 hrs.): 40.1% | inhibitory percent (Wister-strain rats; 100 mg/kg per os, 3 hrs.): 42.4% | edema percent (Wister-strain rats; 100 mg/kg per os, 4 hrs.): 39.7% | inhibitory percent (Wister-strain rats; 100 mg/kg per os, 4 hrs.): 38.5% | edema percent (Wister-strain rats; 100 mg/kg per os, 5 hrs.): 36.0% | inhibitory percent (Wister-strain rats; 100 mg/kg per os, 5 hrs.): 38.3% | LD50 (dd strain mice [3]): about 500 mg/kg
